Experimental data as given in PubChem BioAssay AID463203 (Broad Institute, 2010).
The source made the active and inactive calls.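 The calls were made as follows: active = more than half of replicate measurements showing over 20% loss of kinase signal relative to plate controls; inconclusive = some but at most half of replicates over 20% loss; inactive = no replicate over 20% signal loss.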

Biological target: Glycogen synthase kinase-3 alpha (Homo sapiens) (UniProt P49840)
Assay: concentration-response blocking of human GSK3A – biochemical, luminescence, cell-free homogeneous, retest, dose response (AID 463203)
Settings: GSK-3 alpha enzyme, ADP-Glo luminescence, 60 min

Chain of Glycogen synthase kinase-3 alpha (Homo sapiens) (P49840 whole entry, looked up): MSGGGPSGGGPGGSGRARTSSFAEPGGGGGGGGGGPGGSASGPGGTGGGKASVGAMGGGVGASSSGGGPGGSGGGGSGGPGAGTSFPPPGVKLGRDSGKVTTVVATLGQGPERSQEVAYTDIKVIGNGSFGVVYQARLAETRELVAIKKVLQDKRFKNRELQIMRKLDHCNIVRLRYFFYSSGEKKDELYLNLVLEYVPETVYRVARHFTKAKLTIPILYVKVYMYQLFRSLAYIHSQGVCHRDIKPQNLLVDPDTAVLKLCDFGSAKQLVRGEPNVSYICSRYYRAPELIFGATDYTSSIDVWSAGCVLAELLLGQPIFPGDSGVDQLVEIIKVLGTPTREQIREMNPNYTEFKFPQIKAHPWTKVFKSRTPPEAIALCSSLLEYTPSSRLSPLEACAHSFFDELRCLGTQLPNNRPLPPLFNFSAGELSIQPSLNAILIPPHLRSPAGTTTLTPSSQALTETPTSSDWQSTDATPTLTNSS

Structure (SMILES) | AC50
NS(=O)(=O)c1cccc(NC(=O)CSc2nnc(-c3ccccc3)o2)c1 | > 30 µM (inactive)
CCOC(=O)c1cnc2c(C)c(Cl)ccc2c1N1CCN(CC)CC1 | > 30 µM (inactive)
COc1cccc(-c2cc(C(=O)N3CCN(c4ccccc4OC)CC3)no2)c1 | > 30 µM (inactive)
O=C(CSc1nnc(-c2ccc(O)cc2)o1)Nc1ccccc1 | 16.3 µM
O=[N+]([O-])c1ccc(N/N=C/c2ccc(OCc3cccc4ccccc34)cc2)nc1 | > 30 µM (inactive)
COc1ccccc1Nc1ccc(S(=O)(=O)N2CCCCC2)cc1[N+](=O)[O-] | > 30 µM (inactive)
Cc1ccc(S(=O)(=O)N(CC(O)CN2CCCCC2)c2ccccc2)cc1 (configuration not stated) | > 30 µM (inactive)
CCC(C)[C@H](NC(=O)Nc1ccc(S(N)(=O)=O)cc1)C(=O)O (some centres not stated) | > 30 µM (inactive)
CC(=O)c1c(O)ccc2c(-c3ccccc3)cc(=O)oc12 | > 30 µM (inactive)
Cc1ccc2nc(C3CCCCC3)[nH]c2c1 | > 30 µM (inactive)
O=C1NC(c2ccccc2)(C(F)(F)F)C(=O)N1Cc1cccnc1 (configuration not stated) | > 30 µM (inactive)
COc1ccc(C(=O)c2cc(C(C)=O)c(Nc3ccccc3)s2)cc1 | > 30 µM (inactive)
CC(OC(=O)Cc1c[nH]c2ccccc12)C(=O)c1ccccc1 (configuration not stated) | > 30 µM (inactive)
CCOc1ccc(-c2ncncc2-c2ccc(OC)cc2)c(O)c1 | > 30 µM (inactive)
CC(=O)N1CCc2c(sc(NC(=O)c3cccc(N4C(=O)CCC4=O)c3)c2C(N)=O)C1 | > 30 µM (inactive)
O=C(O)COc1ccc2c(c1)O/C(=C\c1cccs1)C2=O | 26.2 µM
COCCNc1nnc(SCC(=O)NC2CCCCC2)s1 | > 30 µM (inactive)

Continued, values first:

AC50 | Structure (SMILES)
> 30 µM (inactive) | Cc1ccc(S(=O)(=O)N2CCN(C(=O)n3ccnc3)CC2)cc1
> 30 µM (inactive) | NCCNc1ccc([N+](=O)[O-])c(NC2CC2)c1
> 30 µM (inactive) | CC1(C)Cc2c(sc3c2C2=NCCN2C=N3)CO1
> 30 µM (inactive) | CCOc1ccc(S(=O)(=O)c2c(C(=O)c3ccc(C)cc3)cnc3cc4c(cc23)OCCO4)cc1
20.8 µM | c1cc2[nH]snc2c2nc(C3CC3)nc12
> 30 µM (inactive) | COc1cc2ncc(S(=O)(=O)c3ccccc3)c(N3CCCC(C)C3)c2cc1OC (configuration not stated)
> 30 µM (inactive) | Fc1ccc(/C=N/Nc2nccnc2Cl)cc1
> 30 µM (inactive) | CCN(CC)C(=O)c1oc2ccc(S(=O)(=O)N3CCCCCC3)cc2c1C
> 30 µM (inactive) | Cc1ccc(C2CC(=O)N3CN(Cc4ccco4)CSC3=C2C#N)cc1 (configuration not stated)
> 30 µM (inactive) | CCC(CC)c1nnc(NC(=O)CCN2C(=O)c3ccccc3C2=O)s1
6.18 µM | CC1(C)Cc2nc3sc4c(SCC(=O)O)ncnc4c3cc2CO1
16.4 µM | Nc1nonc1-c1nc2ccccc2n1CCC(=O)O
> 30 µM (inactive) | Cc1ccnc2ccc(SC(F)(F)F)cc12
> 30 µM (inactive) | COc1ccc(C2=Nn3c(nnc3-c3ccccc3)SC2)cc1OC
15.6 µM | NC(=O)c1cc([N+](=O)[O-])ccc1NCc1cccc(N)c1
> 30 µM (inactive) | COc1ccc(C(=O)NC(=O)CSc2nnc(-c3ccco3)n2-c2ccccc2)cc1
> 30 µM (inactive) | CCn1c(SCC(=O)Nc2ccc(C)cc2)nnc1-c1ccc(O)cc1
23.1 µM | c1ccc2c(CCNc3ncnc4nc[nH]c34)c[nH]c2c1
22.5 µM | Cc1cccc(C)c1OCC(=O)Nc1ccc2c(c1)C(=O)NC2=O
6.54 µM | COc1cc(/C=C2/NC(=O)NC2=O)cc(Br)c1OCc1cccc(C(=O)O)c1
> 30 µM (inactive) | N#C/C(=C/Nc1ccccc1)c1ccsc1
> 30 µM (inactive) | NC1=NC(=O)/C(=C/c2cccs2)S1
> 30 µM (inactive) | CN(C)CCCNS(=O)(=O)c1ccc(NC2CCCCCC2)c([N+](=O)[O-])c1
> 30 µM (inactive) | CCCCN(CCCC)S(=O)(=O)c1ccc2oc(C(=O)N3CCOCC3)c(C)c2c1
> 30 µM (inactive) | O=C1/C(=C/c2ccc(Br)cc2)Oc2cc(O)ccc21
